Assay results published in patent US9453000B2, “Polycyclic compound” (EISAI R&D MANAGEMENT CO., LTD., priority 2007, dated 2016).

test system: Aβ42 production in rat primary neuronal culture; test: Quantification of Aβ peptide in culture of neurons from rat fetus brain (Aβ ELISA); format: cell-based; conditions: Primary cortical neuron, 72 h, rat primary cortical neurons (embryonic day 18 Wistar), three days after addition of the compound, Aβx-42 ELISA of medium, read-out: Aβ42 production reducing effect IC50
Experimental: Quantification of Aβ Peptide in Culture of Neurons from Rat Fetus Brain
(1) Rat Primary Neuronal Culture
Primary neuronal cultures were prepared from the cerebral cortex of embryonic day 18 Wistar rats (Charles River Japan, Yokohama, Japan). Specifically, the embryos were aseptically removed from pregnant rats under ether anesthesia. The brain was isolated from the embryo and immersed in an ice-cold L-15 medium (Invitrogen Corp. Cat #11415-064, Carlsbad, Calif., USA, or SIGMA L1518, for example). The cerebral cortex was collected from the isolated brain under a stereoscopic microscope. The cerebral cortex fragments collected were enzymatically treated in an enzyme solution containing 0.25% trypsin (Invitrogen Corp. Cat #15050-065, Carlsbad, Calif., USA) and 0.01% DNase (Sigma D5025, St. Louis, Mo., USA) at 37° C. for 30 minutes to disperse the cells. Here, the enzymatic reaction was stopped by adding inactivated horse serum to the solution. The enzymatically treated solution was centrifuged at 1,500 rpm for five minutes to remove the supernatant. 5 to 10 ml of a medium was added to the resulting cell mass. Neurobasal medium (Invitrogen Corp. Cat #21103-049, Carlsbad, Calif., USA) supplemented with 2% B27 supplement (Invitrogen Corp. Cat #17504-044, Carlsbad, Calif., USA), 25 μM 2-mercaptoethanol (2-ME, WAKO Cat #139-06861, Osaka, Japan), 0.5 mM L-glutamine (Invitrogen Corp. Cat #25030-081, Carlsbad, Calif., USA), and Antibiotics-Antimycotics (Invitrogen Corp. Cat #15240-062, Carlsbad, Calif., USA) was used as the medium (Neurobasal/B27/2-ME). However, the above Neurobasal medium not supplemented with 2-ME (Neurobasal/B27) was used for the assay. The cells were redispersed by mild pipetting of the cell mass to which the medium was added. The cell dispersion was filtered through a 40-μm nylon mesh (Cell Strainer, Cat #35-2340, Becton Dickinson Labware, Franklin Lakes, N.J., USA) to remove the remaining cell mass, and thus a neuronal cell suspension was obtained. The neuronal cell suspension was diluted with the medium and then plated in a volume of 100 μl/well at an initial cell density of 5×10^5 cells/cm^2 in a 96-well polystyrene culture plate pre-coated with poly-L or D-lysine (Falcon Cat #35-3075, Becton Dickinson Labware, Franklin Lakes, N.J., USA coated with poly-L-lysine using the method shown below, or BIOCOAT™ cell environments Poly-D-lysine cell ware 96-well plate, Cat #35-6461, Becton Dickinson Labware, Franklin Lakes, N.J., USA). Poly-L-lysine coating was carried out as follows. 100 μg/ml of a poly-L-lysine (SIGMA P2636, St. Louis, Mo., USA) solution was aseptically prepared with a 0.15 M borate buffer (pH 8.5). 100 μl/well of the solution was added to the 96-well polystyrene culture plate and incubated at room temperature for one or more hours or at 4° C. overnight or longer. The coated 96-well polystyrene culture plate was washed with sterile water four or more times, and then dried or rinsed with, for example, sterile PBS or medium, and used for cell plating. The plated cells were cultured in the culture plate at 37° C. in 5% CO2-95% air for one day. Then, the total amount of the medium was replaced with a fresh Neurobasal™/B27/2-ME medium, and then the cells were cultured for further three days.
The drug was added to the culture plate on Day 4 of culture as follows. The total amount of the medium was removed from the wells, and 180 μl/well of Neurobasal medium not containing 2-ME and containing 2% B-27 (Neurobasal/B27) was added thereto. A solution of the test compound in dimethyl sulfoxide (hereinafter abbreviated as DMSO) was diluted with Neurobasal/B27 at 10-fold of the final concentration. 20 μl/well of the dilution was added to and sufficiently mixed with the medium. The final DMSO concentration was 1% or less. Only DMSO was added to the control group.
The cells were cultured for three days after addition of the compound, and the total amount of the medium was collected. […]

SMILES	IC50 [nM]
COc1nc(/C=C/c2nc3n(n2)CCC(C)N3c2ccccc2C(F)(F)F)ccc1-n1cnc(C)c1 (single isomer, unassigned; (+)) [Example 373, (+)-2-{(E)-2-[6-methoxy-5-(4-methyl-1H-imidazol-1-yl)pyridin-2-yl]vinyl}-5-methyl-4-(2-trifluoromethylphenyl)-4,5,6,7-tetrahydro-[1,2,4]triazolo[1,5-a]pyrimidine]	29
COc1cc(/C=C(\F)c2nc3n(n2)CCCC3(O)c2cc(F)c(F)c(F)c2)ccc1-n1cnc(C)c1 (single isomer, unassigned; (-)) [Example 94, (−)-2-{(Z)-1-fluoro-2-[3-methoxy-4-(4-methyl-1H-imidazol-1-yl)phenyl]vinyl}-8-(3,4,5-trifluorophenyl)-5,6,7,8-tetrahydro[1,2,4]triazolo[1,5-a]pyridin-8-ol]	52
COc1cc(/C=C/c2nc3n(n2)CCC3c2ccccc2)ccc1-n1cnc(C)c1 (single isomer, unassigned; (-)) [Example 141, (−)-2-{(E)-2-[3-methoxy-4-(4-methyl-1H-imidazol-1-yl)phenyl]vinyl}-7-phenyl-6,7-dihydro-5H-pyrrolo[1,2-b][1,2,4]triazole]	36
COc1nc(/C=C/c2nc3n(n2)CCOC3c2ccc(Cl)cc2)ccc1-n1cnc(C)c1 (single isomer, unassigned; (-)) [Example 262, (−)-8-(4-chlorophenyl)-2-{(E)-2-[6-methoxy-5-(4-methyl-1H-imidazol-1-yl)pyridin-2-yl]vinyl}-5,6-dihydro-8H-[1,2,4]triazolo[5,1-c][1,4]oxazine]	74
COc1nc(/C=C/c2nc3n(n2)CCCC3c2cc(F)cc(F)c2)ccc1-n1cnc(C)c1 (single isomer, unassigned; (-)) [Example 365, (−)-8-(3,5-difluorophenyl)-2-{(E)-2-[6-methoxy-5-(4-methyl-1H-imidazol-1-yl)pyridin-2-yl]vinyl}-5,6,7,8-tetrahydro-[1,2,4]triazolo[1,5-a]pyridine]	21
COc1nc(/C=C/c2nc3n(n2)CCOC3c2ccccc2C(F)(F)F)ccc1-n1cnc(C)c1 (single isomer, unassigned; (-)) [Example 368, (−)-2-{(E)-2-[6-methoxy-5-(4-methyl-1H-imidazol-1-yl)pyridin-2-yl]vinyl}-8-(2-trifluoromethylphenyl)-5,6-dihydro-8H-[1,2,4]triazolo[5,1-c][1,4]oxazine]	25
COc1nc(/C=C/c2nc3n(n2)CCC3c2cc(F)cc(F)c2)ccc1-n1cnc(C)c1 (single isomer, unassigned; (-)) [Example 384, (−)-7-(3,5-difluorophenyl)-2-{(E)-2-[6-methoxy-5-(4-methyl-1H-imidazol-1-yl)pyridin-2-yl]vinyl}-6,7-dihydro-5H-pyrrolo[1,2-b][1,2,4]triazole]	36
CCCCC(O)c1ccc(C2CCCn3nc(/C=C/c4ccc(-n5cnc(C)c5)c(OC)c4)nc32)cc1 (stereo not shown) [Example 19, 1-{4-{2-{(E)-2-[3-methoxy-4-(4-methyl-1H-imidazol-1-yl)phenyl]vinyl}-5,6,7,8-tetrahydro[1,2,4]triazolo[1,5-a]pyridin-8-yl}phenyl}pentan-1-ol]	43
COc1nc(/C=C/c2nc3n(n2)CC[C@@H](C)N3c2ccc(F)cc2F)ccc1-n1cnc(C)c1 [Example 371, (R)-4-(2,4-difluorophenyl)-2-{(E)-2-[6-methoxy-5-(4-methyl-1H-imidazol-1-yl)pyridin-2-yl]vinyl}-5-methyl-4,5,6,7-tetrahydro-[1,2,4]triazolo[1,5-a]pyrimidine]	27
COc1nc(/C=C/c2nc3n(n2)CC[C@H]3c2ccccc2)ccc1-n1cnc(C)c1 [Example 376, (S)-2-{(E)-2-[6-methoxy-5-(4-methyl-1H-imidazol-1-yl)pyridin-2-yl]vinyl}-7-phenyl-6,7-dihydro-5H-pyrrolo[1,2-b][1,2,4]triazole]	28
COc1nc(/C=C/c2nc3n(n2)CC[C@H]3c2ccc(F)c(F)c2)ccc1-n1cnc(C)c1 [Example 380, (S)-7-(3,4-difluorophenyl)-2-{(E)-2-[6-methoxy-5-(4-methyl-1H-imidazol-1-yl)pyridin-2-yl]vinyl}-6,7-dihydro-5H-pyrrolo[1,2-b][1,2,4]triazole]	29
COc1nc(/C=C/c2nc3n(n2)CC[C@H]3c2ccccc2C(F)(F)F)ccc1-n1cnc(C)c1 [Example 390, (S)-2-{(E)-2-[6-methoxy-5-(4-methyl-1H-imidazol-1-yl)pyridin-2-yl]vinyl}-7-(2-trifluoromethylphenyl)-6,7-dihydro-5H-pyrrolo[1,2-b][1,2,4]triazole]	26
COc1nc(/C=C/c2nc3n(n2)CC[C@H]3c2cc(F)ccc2C(F)(F)F)ccc1-n1cnc(C)c1 [Example 392, (S)-7-(5-fluoro-2-trifluoromethylphenyl)-2-{(E)-2-[6-methoxy-5-(4-methyl-1H-imidazol-1-yl)pyridin-2-yl]vinyl}-6,7-dihydro-5H-pyrrolo[1,2-b][1,2,4]triazole]	22
